Data as given in ChEMBL document CHEMBL4229566, “Discovery of ( S)-3-(3-(3,5-Dimethyl-1 H-pyrazol-1-yl)phenyl)-4-(( R)-3-(2-(5,6,7,8-tetrahydro-1,8-naphthyridin-2-yl)ethyl)pyrrolidin-1-yl)butanoic Acid, a Nonpeptidic αvβ6 Integrin Inhibitor for the Inhaled Treatment of Idiopathic Pulmonary Fibrosis” (J Med Chem, 2018).

Columns and labels:
physchem = settings: buffer, pH 7.4, logD
[1] = target: T1, Voltage-gated inwardly rectifying potassium channel KCNH2 (Homo sapiens, UniProt Q12809)
Description: Inhibition of human ERG expressed in HEK293 cells by Q-patch assay

[2] = target: T1, Voltage-gated inwardly rectifying potassium channel KCNH2; remark: listed apart in the source
Description: (§1) Inhibition of human ERG expressed in HEK293 cells by Barracuda automated patch clamp assay

[3] = Protein binding in human blood at 1 ug/ml after 4 hrs by LC-MS/MS analysis; format: ADME, tissue-based; settings: at 1 µg/mL, read-out: PB (converted)
[4] = target: T1, Voltage-gated inwardly rectifying potassium channel KCNH2; settings: HEK293 cells expressing hERG
Description: as §1

[5] = buffer, pH 7.4
Rattus norvegicus [6] = assay: Biliary clearance in Wistar Han rat assessed as unchanged parent compound level at 1 mg/kg, iv relative to total blood clearance; format: ADME, organism-based; settings: in vivo
[7] = Clearance in human hepatocytes at 0.5 uM up to 60 mins by LC-MS/MS analysis; format: ADME, cell-based, Hepatocyte; settings: 1 h
[8] = Protein binding in rat liver at 1 ug/ml after 4 hrs by rapid equilibrium dialysis and LC-MS/MS analysis; format: ADME, tissue-based; settings: at 1 µg/mL, read-out: PB (converted)
[9] = Drug uptake in Wistar Han rat lung at 6.23 mg/kg administered via nebulized inhalation for 60 mins and measured after 60 mins post inhalation period by MALDI-MS analysis; format: ADME, organism-based; settings: in vivo, inhaled_or_intranasal, 1 h
[10] = Terminal half life in Beagle dog blood at 1 mg/kg, iv dosed via 60 mins infusion followed by 6 days washout and re-dosed via oral gavage at 1 mg/kg; format: ADME, organism-based, Canis lupus familiaris; settings: whole blood, read-out: beta t1/2
[11] = Protein binding in dog blood at 1 ug/ml after 4 hrs by rapid equilibrium dialysis and LC-MS/MS analysis; format: ADME, tissue-based, Canis lupus familiaris; settings: at 1 µg/mL, read-out: PB (converted)
[12] = Clearance in Beagle dog blood at 1 mg/kg, iv dosed via 60 mins infusion followed by 6 days washout and re-dosed via oral gavage at 1 mg/kg; format: ADME, organism-based, Canis lupus familiaris; settings: whole blood
[13] = Bioavailability in Wistar Han rat at 0.227 mg/kg administered via nebulisation; format: ADME, organism-based; settings: in vivo, inhaled or intranasal
[14] = Protein binding in mouse lung at 1 ug/ml after 4 hrs by rapid equilibrium dialysis and LC-MS/MS analysis; format: ADME, tissue-based; settings: at 1 µg/mL, read-out: PB (converted)
[15] = Tmax in Beagle dog blood at 1 mg/kg, iv dosed via 60 mins infusion followed by 6 days washout and re-dosed via oral gavage at 1 mg/kg; format: ADME, organism-based, Canis lupus familiaris; settings: whole blood
[16] = Blood clearance in Wistar Han rat at 1 mg/kg, iv via 30 mins infusion followed by 2 day washout and re-dosed via oral gavage at 3 mg/kg; format: ADME, organism-based; settings: whole blood
Rattus norvegicus [17] = assay: Total renal clearance in Wistar Han rat at 1 mg/kg, iv; format: ADME, organism-based; settings: in vivo
[18] = Drug uptake in Wistar Han rat lung at 0.227 mg/kg administered via nebulisation up to 7 hrs; format: ADME, organism-based; settings: in vivo, inhaled_or_intranasal
Canis familiaris [19] = assay: Clearance in Beagle dog at 1 mg/kg, iv relative to liver blood flow; format: ADME, organism-based, Canis lupus familiaris; settings: in vivo
[20] = Terminal half life in Wistar Han rat at 1 mg/kg, iv dosed via 30 mins infusion; format: ADME, organism-based; settings: in vivo, read-out: beta t1/2
Rattus norvegicus [21] = assay: Clearance in Wistar Han rat at 1 mg/kg, iv relative to liver blood flow; format: ADME, organism-based; settings: in vivo
[22] = Protein binding in mouse blood at 1 ug/ml after 4 hrs by rapid equilibrium dialysis and LC-MS/MS analysis; format: ADME, tissue-based; settings: at 1 µg/mL, read-out: PB (converted)
[23] = Clearance in Wistar Han rat hepatocytes at 0.5 uM up to 60 mins by LC-MS/MS analysis; format: ADME, cell-based, Hepatocyte; settings: 1 h
[24] = Cmax in Wistar Han rat at 3 mg/kg, po via gavage; format: ADME, organism-based; set-up: dose 3 mg/kg, route oral; settings: in vivo
[25] = Clearance in human liver microsomes at 0.5 uM up to 45 mins by LC-MS/MS analysis; format: ADME, microsome; settings: 0.75 h
[26] = Clearance in Beagle dog liver microsomes at 0.5 uM up to 45 mins by LC-MS/MS analysis; format: ADME, Canis lupus familiaris, microsome; settings: 0.75 h
[27] = Volume of distribution at steady state in Wistar Han rat at 1 mg/kg, iv via 30 mins infusion followed by 2 day washout and re-dosed via oral gavage at 3 mg/kg; format: ADME, organism-based; settings: in vivo, read-out: Vdss
[28] = Cmax in Beagle dog at 1 mg/kg, po via gavage; format: ADME, organism-based, Canis lupus familiaris; set-up: dose 1 mg/kg, route oral; settings: in vivo
[29] = Protein binding in human blood at 1 ug/ml after 4 hrs by rapid equilibrium dialysis and LC-MS/MS analysis; format: ADME, tissue-based; settings: at 1 µg/mL, read-out: PB (converted)
[30] = Clearance in CD mouse hepatocytes at 0.5 uM up to 60 mins by LC-MS/MS analysis; format: ADME, cell-based, Hepatocyte; settings: 1 h
[31] = Bioavailability in Wistar Han rat at 1 mg/kg, it measured after 12 hrs post dose; format: ADME, organism-based; settings: in vivo, inhaled or intranasal
[32] = Protein binding in human plasma at 1 ug/ml after 4 hrs by rapid equilibrium dialysis and LC-MS/MS analysis; format: ADME, cell-free; settings: at 1 µg/mL, read-out: PPB (converted)
[33] = Drug uptake in Wistar Han rat lung at 6.23 mg/kg administered via nebulized inhalation for 60 mins and measured immediately after inhalation period by MALDI-MS analysis; format: ADME, organism-based; settings: in vivo, inhaled_or_intranasal, 1 h
[34] = Protein binding in human lung at 1 ug/ml after 4 hrs by rapid equilibrium dialysis and LC-MS/MS analysis; format: ADME, tissue-based; settings: at 1 µg/mL, read-out: PB (converted)
[35] = Volume of distribution at steady state in Beagle dog blood at 1 mg/kg, iv dosed via 60 mins infusion followed by 6 days washout and re-dosed via oral gavage at 1 mg/kg; format: ADME, organism-based, Canis lupus familiaris; settings: whole blood, read-out: Vdss
[36] = Oral bioavailability in Beagle dog at 1 mg/kg via gavage; format: ADME, organism-based, Canis lupus familiaris; settings: in vivo
[37] = Drug uptake in Wistar Han rat lung at 0.227 mg/kg administered via nebulisation after 7 hrs; format: ADME, organism-based; settings: inhaled or intranasal, read-out: Drug uptake
Canis familiaris [38] = assay: Total renal clearance in Beagle dog at 1 mg/kg, iv; format: ADME, organism-based, Canis lupus familiaris; settings: in vivo
[39] = Drug uptake in lung of C57Bl/6J mouse at 15 mg/kg/day, sc administered via continuous infusion through mini-pumps measured within 24 hrs; format: ADME, organism-based; settings: in vivo
[40] = Clearance in CD mouse liver microsomes at 0.5 uM up to 45 mins by LC-MS/MS analysis; format: ADME, microsome; settings: 0.75 h
[41] = Clearance in Beagle dog hepatocytes at 0.5 uM up to 60 mins by LC-MS/MS analysis; format: ADME, cell-based, Canis lupus familiaris, Hepatocyte; settings: 1 h
[42] = Drug uptake in lung of C57Bl/6J mouse at 1.5 mg/kg/day, sc administered via continuous infusion through mini-pumps measured within 24 hrs; format: ADME, organism-based; settings: in vivo
[43] = Protein binding in rat blood at 1 ug/ml after 4 hrs by rapid equilibrium dialysis and LC-MS/MS analysis; format: ADME, tissue-based; settings: at 1 µg/mL, read-out: PB (converted)
[44] = Protein binding in rat kidneys at 1 ug/ml after 4 hrs by rapid equilibrium dialysis and LC-MS/MS analysis; format: ADME, tissue-based; settings: rat kidney tissue, at 1 µg/mL, read-out: PB (converted)
in vivo [45] = settings: Wistar Han, rat, po, 3 mg/kg
[46] = Protein binding in dog plasma at 1 ug/ml after 4 hrs by rapid equilibrium dialysis and LC-MS/MS analysis; format: ADME, cell-free, Canis lupus familiaris; settings: at 1 µg/mL, read-out: PPB (converted)
[47] = Bioavailability in Wistar Han rat nebulized with dose level of 0.227 mg/kg; format: ADME, organism-based; settings: in vivo, inhaled or intranasal
in vivo [48] = settings: Wistar Han, rat, inhaled or intranasal, 0.227 mg/kg
Description: Tmax in Wistar Han rat nebulized with dose level of 0.227 mg/kg

[49] = Cmax in Wistar Han rat nebulized with dose level of 0.227 mg/kg; format: ADME, organism-based; set-up: dose 0.227 mg/kg; settings: in vivo, inhaled or intranasal
[50] = Clearance in Wistar Han rat liver microsomes at 0.5 uM up to 45 mins by LC-MS/MS analysis; format: ADME, microsome; settings: 0.75 h
[51] = Oral bioavailability in Wistar Han rat at 3 mg/kg via gavage; format: ADME, organism-based; settings: in vivo
[52] = Stability in pH 5 to 7 solution under refrigerated conditions; format: physicochemical; settings: buffer
[53] = Stability in solid state form at elevated temperatures and relative humidity conditions; format: physicochemical
[54] = Stability in saline at pH 4 at 50 degC; format: physicochemical; settings: buffer

T1 sequence (Q12809 whole entry): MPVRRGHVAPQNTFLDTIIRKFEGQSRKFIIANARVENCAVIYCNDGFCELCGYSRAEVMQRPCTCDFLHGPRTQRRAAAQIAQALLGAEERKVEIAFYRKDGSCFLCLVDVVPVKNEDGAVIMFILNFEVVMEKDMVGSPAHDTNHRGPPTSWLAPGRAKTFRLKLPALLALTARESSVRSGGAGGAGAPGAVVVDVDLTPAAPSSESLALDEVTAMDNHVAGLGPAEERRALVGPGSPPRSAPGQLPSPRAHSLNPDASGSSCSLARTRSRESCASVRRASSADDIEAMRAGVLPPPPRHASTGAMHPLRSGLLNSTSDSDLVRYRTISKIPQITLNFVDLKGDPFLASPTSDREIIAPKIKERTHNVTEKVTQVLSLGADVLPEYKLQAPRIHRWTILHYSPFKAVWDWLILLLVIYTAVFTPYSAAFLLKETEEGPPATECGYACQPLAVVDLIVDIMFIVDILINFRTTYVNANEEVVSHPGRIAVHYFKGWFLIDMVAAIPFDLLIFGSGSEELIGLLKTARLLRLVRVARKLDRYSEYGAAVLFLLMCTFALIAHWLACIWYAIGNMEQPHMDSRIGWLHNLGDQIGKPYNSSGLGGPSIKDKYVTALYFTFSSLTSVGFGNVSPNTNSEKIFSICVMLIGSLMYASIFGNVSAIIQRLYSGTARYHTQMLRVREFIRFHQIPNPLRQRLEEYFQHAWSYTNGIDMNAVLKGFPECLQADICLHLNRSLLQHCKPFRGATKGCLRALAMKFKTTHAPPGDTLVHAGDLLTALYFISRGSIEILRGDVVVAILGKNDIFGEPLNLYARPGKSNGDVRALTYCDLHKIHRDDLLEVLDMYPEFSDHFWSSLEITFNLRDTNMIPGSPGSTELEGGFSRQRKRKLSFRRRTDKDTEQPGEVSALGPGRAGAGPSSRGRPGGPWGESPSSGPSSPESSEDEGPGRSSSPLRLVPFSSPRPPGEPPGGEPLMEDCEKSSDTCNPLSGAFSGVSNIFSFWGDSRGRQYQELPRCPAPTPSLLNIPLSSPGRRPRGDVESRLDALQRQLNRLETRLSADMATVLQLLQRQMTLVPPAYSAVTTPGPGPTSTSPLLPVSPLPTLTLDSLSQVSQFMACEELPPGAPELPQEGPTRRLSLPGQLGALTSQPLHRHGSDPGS

Work on Cc1cnn(C)c1-c1cccc([C@H](CC(=O)O)CN2CC[C@@H](CCc3ccc4c(n3)NCCC4)C2)c1 yielded a logD (physchem) of 2.72.

O=C(O)C[C@H](CN1CC[C@@H](CCc2ccc3c(n2)NCCC3)C1)c1cccc(-n2cccn2)c1 gave an IC50 [1] of 0.794 µM, an IC50 [2] greater than 50.1 µM and a logD (physchem) of 2.4.

For O=C(O)CC(CN1CC[C@@H](CCc2ccc3c(n2)NCCC3)C1)c1cccc(-n2ccnc2)c1 (mixture of isomers), the IC50 [1] was greater than 31.6 µM, the IC50 [2] was greater than 50.1 µM and the logD (physchem) was 1.97.

In the case of O=C(O)C[C@H](CN1CC[C@@H](CCc2ccc3c(n2)NCCC3)C1)c1cccc(C2CCOC2)c1 (stereo in doubt; 28xI1), the IC50 [1] is reported as 12.6 µM, the IC50 [2] is reported as 39.8 µM and the logD (physchem) is reported as 2.56.

With O=C(O)C[C@H](CN1CC[C@@H](CCc2ccc3c(n2)NCCC3)C1)c1cccc(C2CCOC2)c1 (stereo in doubt; 28xI2) the fraction unbound at 4 h, 1 ug/ml [3] was 0.17, the IC50 [1] was 31.6 µM and the pIC50 [4] was 4.4. It also gave a logD [5] of 2.58.

Molecule Cc1cc(C)n(-c2cccc([C@H](CC(=O)O)CN3CC[C@@H](CCc4ccc5c(n4)NCCC5)C3)c2)n1 [GSK-3008348 FREE BASE] has a CL (Rattus norvegicus [6]) of 24%, a CLH [7] of less than 0.86 mL/min/g and a fraction unbound at 4 h, 1 ug/ml [8] of 0.085. For the same molecule, the Drug uptake [9] was “Not Active”, the half-life [10] was 72 to 324 min and the fraction unbound at 4 h, 1 ug/ml [11] was 0.228. It also gave a fraction unbound at 4 h, 1 ug/ml [3] of 0.08, a clearance [12] of 25 to 33 mL/min/kg and a bioavailability [13] of 54%. It also gave a fraction unbound at 4 h, 1 ug/ml [14] of 0.1, a Tmax [15] of 15 to 30 min and a clearance [16] of 51 to 60 mL/min/kg. It also gave a CL (Rattus norvegicus [17]) of 15%, a Drug uptake [18] of 716 ng and a CL (Canis familiaris [19]) of 50%. The half-life [20] was 48 to 54 min, the CL (Rattus norvegicus [21]) was 70% and the fraction unbound at 4 h, 1 ug/ml [22] was 0.211. It also gave a CLH [23] of 9.45 mL/min/g, a Cmax [24] of 3 to 9 ng/mL and a CLH [25] of 0.58 mL/min/g. For the same molecule, the CLH [26] was less than 0.53 mL/min/g, the Vd [27] was 1.8 to 2.3 L/kg and the Cmax [28] was 55 to 76 ng/mL. It also gave a fraction unbound at 4 h, 1 ug/ml [29] of 0.083, a CLH [30] of 15.3 mL/min/g and a bioavailability [31] of 21%. For the same molecule, the fraction unbound at 4 h, 1 ug/ml [32] was 0.036, the Drug uptake [33] was “Active” and the fraction unbound at 4 h, 1 ug/ml [34] was 0.108. It also gave a Vd [35] of 2.6 to 4.7 L/kg, a bioavailability [36] of 27 to 34% and a concentration at 7 h [37] of 10 ng/g. For the same molecule, the CL (Canis familiaris [38]) was 21%, the Drug uptake [39] was “Active” and the CLH [40] was 3 mL/min/g. The CLH [41] was less than 1.73 mL/min/g, the Drug uptake [42] was “Active” and the fraction unbound at 4 h, 1 ug/ml [43] was 0.294. It also gave a fraction unbound at 4 h, 1 ug/ml [44] of 0.027, a Tmax (in vivo [45]) of 30 to 120 min and a fraction unbound at 4 h, 1 ug/ml [46] of 0.4. It also gave a bioavailability [47] of 40 to 63%, a Tmax (in vivo [48]) of 12 min and a Cmax [49] of 30 to 53 ng/mL. For the same molecule, the CLH [50] was 0.55 mL/min/g and the bioavailability [51] was less than 2%.

With Cc1cc(C)n(-c2cccc([C@H](CC(=O)O)CN3CC[C@@H](CCc4ccc5c(n4)NCCC5)C3)c2)n1.Cl [GSK-3008348] the Stability [52] was 6 weeks, the Stability [53] was 4 weeks and the Stability [54] was “<= 6 weeks”.
